Source: patent US20240109925A1, “Enhanced Anti-Proliferative and Antitumor Immune Effects of Mitochondria-Targeted Hydroxyurea” (The Medical College of Wisconsin, Inc., priority 2021, published 2024)
Read-outs that look alike come from different tables or passages of the source.

Legend:
M-MDSC = test: In vitro differentiation of MDSCs from bone marrow cells, flow cytometry; type: cell-based, mouse; conditions: Mus musculus, Bone marrow cell
Source text: (§1) FIG. 5. In vitro differentiation of MDSCs and suppressive neutrophils in the presence of different concentrations of Mito14-HU and Mito-HUs with varying hydrophobicities (A) Scheme of differentiation of MDSCs. (B) Representative flow cytometry contour plots of in vitro differentiation of MDSCs under varying concentrations of Mito14-HU using FlowJo Software (FlowJo Software, 2019). (C) Summary data depicting distribution of MDSCs after three days treatment with Mito14-HU generated from panel (B). (D and E) (D) Dose-dependent effects of Mito-HUs with different side chain lengths on M-MDSC and (E) suppressive neutrophils. Dashed lines represent the fitting curves used for determination of the IC50 values. Data shown are the means & SD.
(§2) MDSCs were generated from bone marrow cells isolated from C57b1/6 mice and cultured at a density of 1 3 10^6 cells/ml in RPMI with 10% fetal bovine serum and 25 ng/ml recombinant mouse GM-CSF (Shenandoah Biotechnology, Inc.) and 25 ng/ml recombinant mouse IL-6 (Shenandoah Biotechnology, Inc.) for three days. Then, cells were re-cultured in fresh media with inhibitors for an additional three days. Cells were scraped and examined by flow cytometry using the following markers: FITC-anti Ly6C (Biolegend, San Diego, CA), PE-Cy7 anti F4/80 (Biolegend), APC-Cy7 anti Ly6G (Biolegend), and Pacific Blue anti-CD11b (Biolegend). A gating strategy similar to that employed for the T cells was used in all MDSC differentiation assays, which were tested only on live cells after treatments. Flow cytometry data were acquired using a BD Celesta flow cytometer (BD Biosciences), and data were analyzed using FlowJo software (Treestar, Inc.).

suppressive neutrophils = test: as above; type: cell-based, mouse; conditions: for IC50: Mus musculus, Neutrophil, 72 h, read-out: IC50 Suppressive Neutrophils (FIG. 6)
Source text: as §1, §2

[1] = test system: MiaPaCa-2 human pancreatic cancer cells; test: Cell proliferation, IncuCyte Live-Cell Analysis system; type: cell-based
Source text: FIG. 7. Effects of HU and Mito10-HU on proliferation of MiaPaCa-2 human pancreatic cancer cells; MiaPaCa-2 cells treated with HU or Mito10-HU were monitored in the IncuCyte Live-Cell Analysis system. Cell proliferation was monitored in real-time with the continuous presence of indicated treatments until the end of each experiment. Data shown are the means±SD.
The following cell lines were obtained from the American Type Culture Collection (Manassas, VA), where they were regularly authenticated: HCT116 (ATCC Cat #CRL-247, human colon cancer cells) and MiaPaCa-2 (ATCC Cat #CRL-1420, human pancreatic cancer cells). All cells were cultured in a humidified incubator at 37° C. and 5% carbon dioxide. HCT116 cells were maintained in RPMI 1640 medium (Thermo Fisher Scientific, Cat #11875), supplemented with 10% fetal bovine serum. MiaPaCa-2 cells were maintained in Dulbecco's Modified Eagle Medium (Thermo Fisher Scientific, Waltham, MA; Cat #11965) supplemented with 10% fetal bovine serum. All cells were stored in liquid nitrogen and used within 20 passages after thawing.
The IncuCyte Live-Cell Analysis system (Essen Bioscience Inc., Ann Arbor, MI) was used to monitor cell proliferation (Cheng et al., 2013, 2016; Boyle et al., 2018). As shown in previous publications (Cheng et al., 2013, 2016), this imaging system is probe-free and noninvasive, and enables continuous monitoring of cell confluence over several days. The increase in the percentage of cell confluence was used as a surrogate marker of cell proliferation. In a 96-well plate, cells were plated at 1,000 cells per well in triplicates and left to adhere overnight. Cells were then treated with HU and Mito-HUs, and the cell confluency was recorded over several days in the IncuCyte Live-Cell Analysis system.

[2] = target: T1, mitochondrial complex III (Homo sapiens, UniProt P00156+P47985); test: Complex III-dependent oxygen consumption (OCR), Seahorse XF-96, HCT116 cells; type: cell-based; conditions: for IC50: mean ± SD, HCT116, 24 hr treatment, read-out: IC50 Complex III (FIG. 2)
T1 construct: other: mean ± SD; HCT116, 24 hr treatment; Complex III activity (OCR, % of control); other: 0.1 μM, 24 hr, HCT116; n = 4; other: 0.5 μM, 24 hr, HCT116; other: 0.75 μM, 24 hr, HCT116; other: 1 μM, 24 hr, HCT116; Compl
Experimental: (§3) FIG. 2. Effects of HU and Mito-HUs on the oxygen consumption by mitochondrial complexes I and III (A) Dose-dependent effects of HU, Mito10-HU, Mito12-HU, Mito14-HU, Mito16-HU, and Mito20-HU on complex I- and complex III-dependent oxygen consumption were measured in HCT116 cells. HCT116 cells were treated with HU or Mito-HUs as indicated for 24 hr. Mitochondrial complex I activity (left) and complex III activity (right) were monitored by a Seahorse XF-96 analyzer. Either rotenone (complex I inhibitor) or antimycin A (complex III inhibitor) was acutely added and OCR assayed immediately. (B) The mitochondrial complex I (left) and III (right) dependent oxygen consumption (calculated as rotenone or antimycin A inhibitable OCR) are plotted against concentration of HU and Mito-HUs. Dashed lines represent the fitting curves used for determination of the IC50 values. Data shown are the means G SD.
(§4) Mitochondrial oxygen consumption was measured using the Seahorse XF-96 Extracellular Flux Analyzer (Agilent, North Billerica, MA) (Cheng et al., 2013, 2016; Boyle et al., 2018; Weinberg and Chandel, 2015). After cells were treated with HU or Mito-HUs for 24 hr, the OCR-based assessment of mitochondrial complex activities was carried out on acutely permeabilized cells in the presence of different mitochondrial substrates, i.e., pyruvate/malate for complex I and duroquinol for complex III (Cheng et al., 2016, 2019; Salabei et al., 2014; Wheaton et al., 2014). Rotenone, malonate, and antimycin A (Sigma-Aldrich, St. Louis, MO) were used as specific inhibitors of mitochondrial complexes I, II, and III, respectively. Briefly, cells that were intact after treatments were immediately permeabilized using the Seahorse XF Plasma Membrane Permeabilizer (Agilent). The mitochondrial complex I-induced OCR was assayed in mannitol and sucrose buffer (Salabei et al., 2014) containing 10 mM pyruvate and 1.5 mM malate (substrates for complex I) and 10 mM malonate (which inhibits complex II activities). The mitochondrial complex III-driven OCR was assayed in a mannitol and sucrose buffer containing 0.5 mM duroquinol (substrate for complex III) as well as […] and 10 mM malonate (which inhibit both complex I and II activities). The IC50 values were determined as previously reported (Cheng et al., 2019).

mitochondrial complex I = mitochondrial complex I (Homo sapiens, UniProt O75251+O75306+P03886); test: Complex I-dependent oxygen consumption (OCR), Seahorse XF-96, HCT116 cells; type: cell-based; conditions: for IC50: mean ± SD, HCT116, 24 hr treatment, read-out: IC50 Complex I (FIG. 2)
Experimental: as §3, §4

[3] = 72 h, read-out: IC50 M-MDSC (FIG. 6)
[4] = read-out: IC50 frequency of M-MDSCs

Row | SMILES | IC50 (M-MDSC; [3]) [nM] | IC50 (M-MDSC; [4]) [nM] | IC50 (suppressive neutrophils) [nM] | effect on suppressive neutrophils (suppressive neutrophils; three days) | inhibition of proliferation of MiaPaCa-2 cells [1] | effect on complex III-induced oxygen consumption ([2]; HCT116, 24 hr) | IC50 [2] [nM] | effect on complex I-induced oxygen consumption (mitochondrial complex I; HCT116, 24 hr) | IC50 (mitochondrial complex I) [nM]
1 | NC(=O)NOCCCCCCCCCCCCCCCC[P+](c1ccccc1)(c1ccccc1)c1ccccc1.O=C([O-])C(F)(F)F [Mito16-HU, 16-[(carbamoylamino)oxy]-hexadecyltriphenylphosphonium trifluoroacetate] | 440 ± 110 | 440 | 560 ± 120 | greater inhibitory effects | increasing antiproliferative potencies | potently inhibited | 2600 ± 390 | potently inhibited | 800 ± 50
2 | NC(=O)NOCCCCCCCCCCCCCCCCCCCC[P+](c1ccccc1)(c1ccccc1)c1ccccc1.O=C([O-])C(F)(F)F [Mito20-HU, 20-[(carbamoylamino)oxy]-eicosanyltriphenylphosphonium trifluoroacetate] | 440 ± 90 | 440 | > 1000 |  | increasing antiproliferative potencies |  | 4200 ± 400 |  | 800 ± 60
